Source: article PMC8162404, “Proteomimetic surface fragments distinguish targets by function” (Chemical Science, 2020)

Legend:
S100B = biological target: T1, S100B (Homo sapiens, UniProt P04271); assay: Pull-down assay with immobilized protein and LSM libraries; format: binding; details: H12 library; 1:1 binding assumed; read-out: Surface mapping KD (apparent)
T1 construct: made in house; host or cells: Escherichia coli BL21(DE3)
T1 sequence (P04271 1-92): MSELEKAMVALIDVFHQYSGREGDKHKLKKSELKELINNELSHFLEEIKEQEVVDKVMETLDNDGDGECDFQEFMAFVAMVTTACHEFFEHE
Protocol: (§1) Pull-down assays with immobilized test proteins and foldameric LSM libraries were carried out. Proteins were equilibrated with LSM probes, and equilibrium bound fractions (FB) were determined from the unbound fractions measured by HPLC-MS methods. Hits were corrected with background binding of the resin. The protocol allowed all binding events to equilibrate irrespective of affinity, specificity, and binding kinetics. This was essential to judge overall druggability and promiscuity. Importantly, the concentration of protein and the total concentration of foldameric LSMs were equimolar, which minimized competition between the probes. This experimental setup approximated independent binding of individual library members. Results were visualized as heat maps of dissociation constants (Fig. 3).
(§2) Pull-down assay and data analysis
(§3) Pull-down assay. LSM sublibraries were screened separately as previously described.(2) Experiments were performed in the following buffers: (i) 20 mM pH 7.4 HEPES, 150 mM NaCl, 5 mM CaCl2 for CaM; (ii) 50 mM pH 7.4 HEPES, 150 mM NaCl, 1 mM TCEP, 1 mM CaCl2 for S100 proteins; (iii) 20 mM pH 7.4 HEPES, 150 mM NaCl, 1 mM TCEP for Gal-1 and (iv) 20 mM pH 7.4 HEPES, 150 mM NaCl for RecQ-WH. Assays were performed in paper filter spin cups (Thermo Scientific) with sample volumes of 100 µl. Hexahistidine-tagged proteins were immobilized on previously washed Co-NTA resin (TALON, Takara Bio USA, Inc., Mountain View, CA) in 64 µM final concentration. LSM sublibrary was added, in which each of the 64 library members were used at a concentration of 1 µM. Samples were incubated at room temperature for 30 min with shaking at 100 rpm. Then, samples were centrifuged at 1000 rpm for 2 min and washed with 100 µl pull-down buffer to remove unbound compounds.
(§4) The control experiments were performed using the same compounds and the resin but without the immobilized protein. In case of competitive assays, competitor peptides were added to LSM sublibrary samples in 200 µM final concentration. In the case of Gal-1, lactose (competitor) was used in a concentration of 10 mM. Experiments were performed at least twice. Mean […]
(§5) LC-MS methods and parameters. HPLC/ESI-MS analysis was used to characterize the samples from the pull-down assay. LC-MS analysis was performed with a Thermo Scientific Dionex UltiMate 3000 HPLC system interfaced to an LTQ ion trap mass spectrometer (Thermo Electron Corp., San Jose, CA, USA). Samples were injected onto an Aeris Widepore XB-C18 (250 x 4.6 mm) analytical HPLC column using gradient elution 5-80 % solution B during 25 minutes. For pull-down samples, eluent composition was 0.1% acetic acid in distilled water (Solution A) and 0.1% acetic acid in acetonitrile (solution B). Mass spectra were acquired in full scan mode from 200 to 2000 m/z range. For overlapping peaks, selective reaction monitoring (SRM) was […]
(§6) MS data analysis. Thermo Xcalibur 2.2 software was used for peak identification and integration. The majority of the foldameric fragments could be resolved independently via HPLC-MS/MS measurements based on molecular weight, MS fragmentation pattern and retention time. Peaks of some foldamers with β3-hIle or β3-hLeu in position R2 could not be resolved, these were integrated and averaged. In the processing method, each sample component was associated to a chromatographic peak based on previously identified mass (m/z) and retention time (ref (2) and Table S7-10). Using ICIS peak detection algorithm, the general detection and integration criteria were: smoothing points: 5, baseline window: 80, area noise factor: 5, peak noise factor: 10. Using these processing setups, all raw data files were reprocessed together and analyzed. Errors in peak identification during the automatic processing were corrected manually.
(§7) Calculation of the discussed parameters
(§8) 1. Bound fractions (FB.) were calculated from the HPLC-MS intensity loss of the LSM probes compared to the control where no protein was immobilized to the resin: […]

Gal-1 = biological target: T2, Gal-1 (Homo sapiens, UniProt P09382); assay: as above; format: binding; details: H14 library; 1:1 binding assumed; read-out: Surface mapping KD (apparent)
T2 construct: made in house; host or cells: E. coli BL21(DE3)
T2 sequence (P09382 whole entry): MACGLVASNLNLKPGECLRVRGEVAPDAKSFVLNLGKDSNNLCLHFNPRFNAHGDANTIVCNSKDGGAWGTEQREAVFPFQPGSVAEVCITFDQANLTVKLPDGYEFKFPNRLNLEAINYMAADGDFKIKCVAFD
Protocol: as §1, §2, §3, §4, §5, §6, §7, §8

Row | Structure (SMILES) | Kd (S100B) [µM] | Kd (Gal-1) [µM]
1 | C[C@@H](CC(=O)N[C@H]1CCC[C@@H]1C(=O)N[C@H]1CCC[C@@H]1C(=O)N[C@@H](CCCNC(=N)N)CC(=O)N[C@H]1CCC[C@@H]1C(=O)N[C@H]1CCC[C@@H]1C(N)=O)NC(=O)[C@H]1CCC[C@@H]1NC(=O)[C@H]1CCC[C@@H]1N [H12 AR] | 219 | –
2 | CC[C@H](C)[C@@H](CC(=O)N[C@H]1CCC[C@@H]1C(=O)N[C@H]1CCC[C@@H]1C(=O)N[C@@H](CCCCN)CC(=O)N[C@H]1CCC[C@@H]1C(=O)N[C@H]1CCC[C@@H]1C(N)=O)NC(=O)[C@H]1CCC[C@@H]1NC(=O)[C@H]1CCC[C@@H]1N [H12 IK] | 87 | –
3 | C[C@@H](CC(=O)N[C@H]1CCC[C@@H]1C(=O)N[C@H]1CCC[C@@H]1C(N)=O)NC(=O)[C@H]1CCC[C@@H]1NC(=O)[C@H]1CCC[C@@H]1NC(=O)C[C@H](CCCCN)NC(=O)[C@H]1CCC[C@@H]1NC(=O)[C@H]1CCC[C@@H]1N [H12 KA] | 243 | –
4 | NCCCC[C@@H](CC(=O)N[C@H]1CCC[C@@H]1C(=O)N[C@H]1CCC[C@@H]1C(=O)N[C@@H](CC(N)=O)CC(=O)N[C@H]1CCC[C@@H]1C(=O)N[C@H]1CCC[C@@H]1C(N)=O)NC(=O)[C@H]1CCC[C@@H]1NC(=O)[C@H]1CCC[C@@H]1N [H12 KN] | 274 | –
5 | C[C@@H](O)[C@@H](CC(=O)N[C@H]1CCC[C@@H]1C(=O)N[C@H]1CCC[C@@H]1C(N)=O)NC(=O)[C@H]1CCC[C@@H]1NC(=O)[C@H]1CCC[C@@H]1NC(=O)C[C@H](CCCCN)NC(=O)[C@H]1CCC[C@@H]1NC(=O)[C@H]1CCC[C@@H]1N [H12 KT] | 226 | –
6 | N=C(N)NCCC[C@@H](CC(=O)N[C@H]1CCC[C@@H]1C(=O)N[C@H]1CCC[C@@H]1C(=O)N[C@@H](CC(N)=O)CC(=O)N[C@H]1CCC[C@@H]1C(=O)N[C@H]1CCC[C@@H]1C(N)=O)NC(=O)[C@H]1CCC[C@@H]1NC(=O)[C@H]1CCC[C@@H]1N [H12 RN] | 217 | –
7 | N=C(N)NCCC[C@@H](CC(=O)N[C@H]1CCC[C@@H]1C(=O)N[C@H]1CCC[C@@H]1C(=O)N[C@@H](CCC(N)=O)CC(=O)N[C@H]1CCC[C@@H]1C(=O)N[C@H]1CCC[C@@H]1C(N)=O)NC(=O)[C@H]1CCC[C@@H]1NC(=O)[C@H]1CCC[C@@H]1N [H12 RQ] | 210 | –
8 | NCCCC[C@@H](CC(=O)N[C@H]1CCC[C@@H]1C(=O)N[C@H]1CCC[C@@H]1C(N)=O)NC(=O)[C@H]1CCC[C@@H]1NC(=O)[C@H]1CCC[C@@H]1NC(=O)C[C@H](CO)NC(=O)[C@H]1CCC[C@@H]1NC(=O)[C@H]1CCC[C@@H]1N [H12 SK] | 401 | –
9 | C[C@@H](CC(=O)N[C@H]1CCCC[C@@H]1C(=O)N[C@H]1CCCC[C@@H]1C(=O)N[C@@H](CC(N)=O)CC(=O)N[C@H]1CCCC[C@@H]1C(N)=O)NC(=O)[C@H]1CCCC[C@@H]1N [H14 AN] | – | 303
10 | CSCC[C@@H](CC(=O)N[C@H]1CCCC[C@@H]1C(=O)N[C@H]1CCCC[C@@H]1C(=O)N[C@@H](CCC(=O)O)CC(=O)N[C@H]1CCCC[C@@H]1C(N)=O)NC(=O)[C@H]1CCCC[C@@H]1N [H14 ME] | – | 250

Now from value to compound:

Row | Kd (S100B) [µM] | Kd (Gal-1) [µM] | Structure (SMILES)
11 | 216 | – | CC[C@H](C)[C@@H](CC(=O)N[C@H]1CCC[C@@H]1C(=O)N[C@H]1CCC[C@@H]1C(=O)N[C@H](CC(=O)N[C@H]1CCC[C@@H]1C(=O)N[C@H]1CCC[C@@H]1C(N)=O)[C@@H](C)O)NC(=O)[C@H]1CCC[C@@H]1NC(=O)[C@H]1CCC[C@@H]1N [H12 IT]
12 | 258 | – | CC(C)C[C@@H](CC(=O)N[C@H]1CCC[C@@H]1C(=O)N[C@H]1CCC[C@@H]1C(=O)N[C@@H](CO)CC(=O)N[C@H]1CCC[C@@H]1C(=O)N[C@H]1CCC[C@@H]1C(N)=O)NC(=O)[C@H]1CCC[C@@H]1NC(=O)[C@H]1CCC[C@@H]1N [H12 LS]
13 | 216 | – | CC(C)C[C@@H](CC(=O)N[C@H]1CCC[C@@H]1C(=O)N[C@H]1CCC[C@@H]1C(=O)N[C@H](CC(=O)N[C@H]1CCC[C@@H]1C(=O)N[C@H]1CCC[C@@H]1C(N)=O)[C@@H](C)O)NC(=O)[C@H]1CCC[C@@H]1NC(=O)[C@H]1CCC[C@@H]1N [H12 LT]
14 | 253 | – | C[C@@H](O)[C@@H](CC(=O)N[C@H]1CCC[C@@H]1C(=O)N[C@H]1CCC[C@@H]1C(=O)N[C@@H](CCCCN)CC(=O)N[C@H]1CCC[C@@H]1C(=O)N[C@H]1CCC[C@@H]1C(N)=O)NC(=O)[C@H]1CCC[C@@H]1NC(=O)[C@H]1CCC[C@@H]1N [H12 TK]
